Assay results reported in ChEMBL document CHEMBL1146443, “New indole derivatives with free radical scavenging activity from Agrocybe cylindracea” (J Nat Prod, 1997).
≈ marks a conversion by molar mass, not a printed value. Calls of active or inactive are those of the source. The rule behind the calls is not given here.

Key:
Liver microsomes [1] = assay: Inhibition of lipid peroxidation in rat liver microsome at 50 ug/mL; type: functional
Liver microsomes [2] = assay: Inhibition of lipid peroxidation in rat liver microsome; type: functional

Row | IC50 (Liver microsomes [2]) [mg/L] | SMILES | Activity (Liver microsomes [1])
1 |  | O=C(O)Cc1c[nH]c2ccccc12 | inactive
2 | 4.1 (≈ 25.4 µM) | O=Cc1c[nH]c2cc(O)ccc12 | 
3 | 3.9 (≈ 20.5 µM) | NC(=O)Cc1c[nH]c2cc(O)ccc12 | 
